Like-named read-outs stand apart in the source and are kept apart here.
Tests used:
[1] = biological target: T1, bovine insulin (Bos taurus, UniProt P01317); test: Incubation of peptides with isothiocyanates, LC-MS/MS; format: binding; settings: PBS pH 7.4 at 37° C., 0.5 to 24 hours
T1 construct: m/z 325.2 corresponds to Phe-SF, the N-terminal amino acid of insulin B chain; m/z 235.0 corresponds to Gly-SF, the N-terminal amino acid of insulin A chain; purchased Sigma-Aldrich
Protocol: (§1) Incubations of SF or IB with bovine insulin (P01308, Sigma-Aldrich), recombinant human epidermal growth factor (EGF, P01133, R&D Systems, http://www.rndsystems.com/) and recombinant human transforming growth factor beta 1 (TGFβ1, P01137, R&D Systems) were performed in sodium phosphate-buffered saline solution (pH 7.4) or human blood plasma at 37° C. for 0.5-24 h. Plasma was pre-treated by ultrafiltration to remove high molecular weight proteins (Microcon Ultracel YM-30 filter, MWCO 30,000). Samples were either analyzed directly by LC-MS/MS or by LC-MS/MS analysis of tryptic digests of gel electrophoresis bands.
(§2) The LC system used was a Shimadzu series LOAD VP (Shimadzu). The column was an ACE 300 C18, 150×2.1 mm (5 μm particle size) used at 40° C. Mobile phase A was 0.1% formic acid in water, mobile phase B, 0.1% formic acid in acetonitrile and the flow rate was 0.25 ml/min. A linear gradient was used from 25% B to 35% B over 0 to 5 min, then a further gradient from 35% B to 99% B over 6 min followed by 99% B for 4 min. The column was re-equilibrated for a total of 3 min. The injection volume was between 5-20 μl. […] The peak-width was set on Q1 and Q3 at 1.0 Th (measured at half height) for all MS and MS/MS experiments. […]

[2] = biological target: T2, recombinant human epidermal growth factor (EGF) (Homo sapiens, UniProt P01133); test: as above; format: binding; settings: PBS pH 7.4 at 37° C., 0.5 to 24 hours
T2 construct: addition of SF to the N-terminal asparagines residue (m/z 309) of EGF; purchased R&D Systems
T2 sequence (P01133 971-1023 limits assumed): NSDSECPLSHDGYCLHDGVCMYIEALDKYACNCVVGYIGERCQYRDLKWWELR
Protocol: as §1, §2

[3] = biological target: T3, recombinant human transforming growth factor beta 1 (TGFβ1) (Homo sapiens, UniProt P01137); test: as above; format: binding; settings: PBS pH 7.4 at 37° C., 0.5 to 24 hours
T3 construct: TGFβ1 was robustly identified in bands of 25 kDa corresponding to the active dimer; The N-terminal peptide […] was identified; purchased R&D Systems
T3 sequence (P01137 279-390 limits assumed): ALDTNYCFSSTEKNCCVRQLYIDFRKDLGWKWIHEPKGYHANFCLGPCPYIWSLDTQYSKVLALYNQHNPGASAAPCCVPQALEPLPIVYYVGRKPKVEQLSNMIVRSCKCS
Protocol: as §1, §2

[4] = test system: TGFβ1/Smad mediated transcription
Protocol: Cells were seeded into complete growth medium in a six-well tissue culture dish for 24 h, after which the medium was replaced with low serum medium (0.5% FCS) containing one of three treatments: (1) TGFβ1 (to achieve a final concentration of 2 ng ml^−1) in PBS buffer, (2) TGFβ1^+10 mM DTT in PBS buffer (3) TGFβ1^+2 μM SF in PBS buffer. To simulate SF pharmacokinetics, all test samples were incubated at 37° C. for 30 minutes prior to dialysis, performed in PBS buffer for 4 hours using Slide-A-Lyzer Dialysis Cassettes MWCO 3.5K (PIERCE). Dialysis reduced SF concentration to 34 nM. As additional controls, cells were treated with PBS without TGFβ1 and PBS with SF (34 nM). The luciferase activity was determined 16 h following treatment using the Luciferase Reporter Gene assay (Roche Applied Science) in a Perkin Elmer Wallac Victor 2 1420 multilabel counter plate reader (Perkin Elmer). Briefly, cells were washed twice with PBS and lysed in cell lysis buffer supplied with the assay. Chemiluminescence was immediately quantified following the addition of luciferase assay substrate. Luciferase values were normalized to protein concentration quantified using the BCA assay (Sigma-Aldrich). The experiment was repeated four times, with three replicates of each treatment per experiment. Statistical analysis was performed using 1-way ANOVA with the statistical software, R [24].

[5] = test system: EGF receptor phosphorylation in BPH cells; settings: EGF pre-incubated with ITC, compared to EGF alone
[6] = test system: pAKT in PC-3 cells
Protocol: BPH-1 or PC-3 cells were cultured in 10 cm cell culture dishes or 6-well culture plates until they reached 80% confluency and were lifter using TE buffer (10 mM Tris/HCl, 1 mM EDTA, pH8). After 24 h treatment with SF cells were washed three times with cold PBS and treated with RIPA buffer for 2 min on ice, followed by centrifugation at 13 000 g at 4° C. for 10 min and the supernatant collected for western blotting. Protein was separated on NuPage 10% polyacrylamide gels by electrophoresis and transferred to nitrocellulose membranes. Membranes were probed with primary antibodies obtained from Cell Signalling© at a dilution of 1:1000: Phospho-Akt (Ser^473) Rabbit mAb (#4060 L) and AKT (pan) Rabbit rnAb (#4685). GAPDH was used as a loading control for all blots. Proteins were visualised with SuperSignal West Chemiluminescence kit.

T1 sequence (P01317 25-54 limits assumed): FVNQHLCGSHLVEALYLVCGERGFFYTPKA
T1 sequence (P01317 85-105 limits assumed): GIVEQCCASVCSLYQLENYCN

Compound | conjugate of peptide and ITC (insulin) [1] | conjugate of peptide and ITC (EGF) [2] | conjugate of peptide and ITC (TGFβ1) [3] | Smad-mediated transcription (luciferase activity) ([4]; TGFβ1 pre-incubated with SF (2 μM) for 30 minutes followed by dialysis, compared to TGFβ1 alone) | Smad-mediated transcription (luciferase activity) ([4]; residual SF (34 nM) alone, without TGFβ1) | amount of phosphorylated EGF receptor [5] | pAKT expression ([6]; PC-3 cells + FCS, 2 μM SF, one hour) | pAKT expression ([6]; PC-3 cells + FCS, 10 μM SF) | pAKT expression ([6]; PC-3 cells in culture medium without FCS) | pAKT expression ([6]; PC-3 cells, 0.5 μM SF (data not shown))
C[S+]([O-])CCCN=C=S (stereo not shown) [IB, iberin] | formation of a covalently bound conjugate | formation of a covalently bound conjugate | formation of a covalently bound conjugate | – | – | – | – | – | – | –
C[S+]([O-])CCCCN=C=S (stereo not shown) [SF, sulforaphane] | formation of a covalently bound conjugate | formation of a covalently bound conjugate | formation of a covalently bound conjugate | increase in Smad-mediated transcription | did not result in enhanced transcription | reduces the amount of phosphorylated receptor | suppresses pAKT | variable response | no further inhibition | suppression
